The values that follow come from US4962113A, “Pyridinium derivatives, their production and use” (Takeda Chemical Industries, Ltd, priority 1987, dated 1990).

Read-outs that look alike come from different tables or passages of the source.

Data set [1] deals with PAF-induced bronchoconstriction. In words: PAF inhibitory action in bronchoconstriction. Conditions: oral, 30 mg/kg, one hour before PAF (0.3 μg/kg i.v.). Format: in vivo, guinea pig (Hartley). The method, then:
Female and male Hartley guinea pigs weighing about 400 g were fixed on the dorsal position under anesthesia with an ethylcarbamate (1.5 g/kg, intraperitoneally). One leg of a cannula (4 legs) was inserted into the trachea, and two of the remaining three legs were connected to an artificial respirator (Harvard apparatus rodent respirator). The remaining one leg (side tube) was connected to a bronchospasm transducer 7020 (Ugobasile).
While the air volume per ventilation was adjusted to 5 to 7 ml and the air ventilation rate was controlled at 70 times/min., with a load pressure to the lung set at 10 cm H2 O, the overflown air volume was recorded on Rectigraph (Rectigraph-8S, San-ei Seiki Inc.) through a transducer. After 1 mg/kg of gallamine triethodide was given intravenously to the animals, histamine dihydrochloride (10 μg/kg) was applied intravenously to examine reaction of the animals. PAF(0.3 μg/kg) was administered intravenously, and, 30 sec. later, maximum bronchoconstriction was observed. Under these conditions, bronchoconstriction activity of the test samples was examined. The test sample was suspended in a 5% gum arabic solution, and given orally one hour before the administration of PAF. The compounds obtained in Production Examples 3 and 4 inhibited PAF-induced bronchoconstriction by oral administration (30 mg/kg).

Data set [2] can be described thus: Acute Toxicity Test. Format: in vivo. Conditions: oral, 1000 mg/kg, until after one week. How it is done:
Male Jcl-ICR mice (5 wk) were used in groups of five individuals. The animals of the respective groups were orally administered with the compounds (227), (236) and (303) respectively produced in Production Examples 87, 90 and 109 at the dose of 1000 mg/kg.

Data set [3] concerns PAF-induced hypotension. In words: Inhibitory action on PAF-induced hypotension in rats. Format: in vivo, rat (Sprague-Dawley). The settings on record: Rattus norvegicus, read-out: Inhibitory Rate (Lowering of Blood Pressure); for inhibition in vivo at 0.01 mg/kg / inhibition in vivo at 0.03 mg/kg: iv; for inhibition in vivo at 1 mg/kg / inhibition in vivo at 3 mg/kg: oral. The method in brief:
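Male Sprague-Dawley rats of about 250 g had cannulas placed in the femoral artery, for blood pressure recording via a pressure transducer, and in the femoral vein, for drug dosing. The hypotensive response to intravenous PAF (1 μg/kg) was measured first. Test samples were then given intravenously or orally, and PAF was given again. Percent inhibition compares the PAF-induced pressure drop (Δ mmHg) after treatment with the drop before treatment.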

In data set [4] the test system is platelet aggregation (PAF). In words: Inhibitory action on PAF-induced rabbit platelet aggregation. Format: cell-based. The settings on record: Oryctolagus cuniculus, read-out: inhibitory percentage (platelet aggregation); for inhibition at 3 µM: 3 × 10^-6 M; for inhibition at 0.3 µM: 3 × 10^-7 M; for inhibition at 0.03 µM: 3 × 10^-8 M. The method in brief: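 Male rabbit citrated PRP, adjusted with PPP to about 500,000 platelets/μl, was stirred 2 min at 37 °C, then with test sample for 2 min before PAF addition. Aggregation was followed by aggregometry as maximum percent light transmission.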

For `CCCCCCCCCCCCCCCCCCNC(=O)OCC(COC(=O)NCCN(C(=O)c1cc(Br)c[n+](CC)c1)c1ccccc1)OC` (stereo not shown) [Production Example 3, 5-bromo-3-[N-[2-(2-methoxy-3-octadecylcarbamoyloxyproxycarbonyl)]aminoethyl-N-phenyl]carbamoyl-1-ethyl pyridinium iodide], the “inhibition of PAF-induced bronchoconstriction” value in data set [1] is listed as 64.9%.
On to `CCC[n+]1cc(Br)cc(C(=O)N(CCC(=O)NCCOC(=O)Nc2cccc3ccccc23)c2ccccc2)c1` [Production Example 90, 5-bromo-3-[N-[2-[2-(1-naphthylcarbamoyloxy)ethyl]carbamoyl]ethyl-N-phenyl]carbamoyl-1-propylpyridinium chloride], for which, in data set [2], the death of mice entry is given as “No death of mice was observed”. Besides, in data set [3] (1 hr.), the inhibition in vivo at 0.01 mg/kg is 58%, the inhibition in vivo at 0.03 mg/kg was found to be 83%, the inhibition in vivo at 1 mg/kg is 69% and the inhibition in vivo at 3 mg/kg is 96%. Also, in data set [3] (2 hr.), the inhibition in vivo at 0.01 mg/kg came to 36%, the inhibition in vivo at 0.03 mg/kg was determined as 64%, the inhibition in vivo at 1 mg/kg stood at 68% and the inhibition in vivo at 3 mg/kg came out at 99%. In addition, in data set [3] (4 hr.), the inhibition in vivo at 0.01 mg/kg is 17%, the inhibition in vivo at 0.03 mg/kg was determined as 51%, the inhibition in vivo at 1 mg/kg came out at 78% and the inhibition in vivo at 3 mg/kg is 94%. Moreover, in data set [3] (6 hr.), the inhibition in vivo at 0.01 mg/kg was 10%, the inhibition in vivo at 0.03 mg/kg was found to be 36%, the inhibition in vivo at 1 mg/kg turned out to be 71% and the inhibition in vivo at 3 mg/kg was 87%. Besides, in data set [3] (8 hr.), the inhibition in vivo at 0.01 mg/kg was determined as 1%, the inhibition in vivo at 0.03 mg/kg was found to be 23%, the inhibition in vivo at 1 mg/kg is 60% and the inhibition in vivo at 3 mg/kg turned out to be 81%. Besides, in data set [3] (5 min, i.v., 5 min.), the inhibition in vivo at 0.01 mg/kg was determined as 69% and the inhibition in vivo at 0.03 mg/kg came out at 100%. Besides, in data set [4], the inhibition at 3 µM was 100%, the inhibition at 0.3 µM was 100% and the inhibition at 0.03 µM came out at 16%.
`CCCCCCCCCCCCOCCOCCOC(=O)NCCN(C(=O)c1cc(Br)c[n+](CC)c1)c1ccccc1` [Production Example 4, 5-bromo-3-[N-[2-[2-(2-dodecyloxyethoxy)ethoxycarbonyl]]aminoethyl-N-phenyl]carbamoyl-1-ethylpyridinium iodide]: the “inhibition of PAF-induced bronchoconstriction” value in data set [1] was 59.9%. For the same compound, in data set [4], the inhibition at 3 µM was 100%, the inhibition at 0.3 µM turned out to be 100% and the inhibition at 0.03 µM turned out to be 100%.
